The values below come from patent US10695450B2, “Synthesis of a radioactive agent composition” (LABORATOIRES CYCLOPHARMA, priority 2016, dated 2020).

The series is described as follows: Radiochemical purity of [^18F]FES stock solution during storage (radiolysis stability). Format: physicochemical. The settings on record: for Radio-chemical purity after 10 h storage: sodium ascorbate in purification and formulation (0.45% m/v). As for the experimental part: Radiochemical purity is the ratio of the radioactivity of the radionuclide agent under chemical form on the total radioactivity of this same radionuclide. Radiochemical purity of the [^18F]FES stock solution is measured. […]

As to `C[C@]12CC[C@@H]3c4ccc(O)cc4CC[C@H]3C1C[C@@H]([18F])[C@@H]2O` (stereo partly drawn) [[^18F]FES, 16α-[^18F]fluoro-17β-estradiol], the Radio-chemical purity reads like this: (Example 2: sodium ascorbate during purification only, none in final solution, 250 GBq 18-Fluorine, time of storage 0 hours (end of synthesis)) 99.3%; (Example 2: sodium ascorbate during purification only, none in final solution, 250 GBq 18-Fluorine, time of storage 4 hours) 95%; (Example 2: sodium ascorbate during purification only, none in final solution, 250 GBq 18-Fluorine, time of storage 8 hours) 93%; (Example 2: sodium ascorbate during purification only, none in final solution, 250 GBq 18-Fluorine, time of storage 10 hours) 92%; (Example 4: synthesis in the presence of sodium ascorbate, 164 GBq 18-Fluorine, time of storage 0 hours (end of synthesis)) 98.0%; (Example 4: synthesis in the presence of sodium ascorbate, 164 GBq 18-Fluorine, time of storage 5 hours) 96.8%. For the same compound, where the note is “Example 4: synthesis in the presence of sodium ascorbate, 164 GBq 18-Fluorine, time of storage 10 hours”, the Radio-chemical purity was determined as 96.7%. In addition, the “Radio-chemical purity after 10 h storage” value was 98.0% (Example 3, batch number 1, 79 GBq 18-Fluorine); 99.0% (Example 3, batch number 2, 99 GBq 18-Fluorine); 96.7% (Example 3, batch number 3, 164 GBq 18-Fluorine); 97.1% (Example 3, batch number 4, 195 GBq 18-Fluorine). The “Decrease of radiochemical purity after 10 hours of storage” value worked out at 1.3% (synthesized in the presence of sodium ascorbate (Example 4, Table 4)) and 7.3% (synthesized without antioxidant (Example 2, Table 2)).
